Laboratory results as given in ChEMBL document CHEMBL4665691, “Callicarpins, Two Classes of Rearranged ent-Clerodane Diterpenoids from Callicarpa Plants Blocking NLRP3 Inflammasome-Induced Pyroptosis” (J Nat Prod, 2020).

What follows are compounds tested on J774.A1 (assay: Cytotoxicity against mouse J774.A1 cells by LDH release assay). Conditions: Mus musculus, J774.A1.
Format: functional, cell-based
Compound `C[C@@H]1CC[C@]2(C)[C@H](C[C@H](C(=O)O)[C@]2(C)O)[C@@]1(C)C[C@H](O)C1=CC(=O)OC1O` (some centres not stated) has an IC50 of 24.7 µM. `C[C@@H]1CC[C@@]2(C)C(=O)C[C@H](O)CC[C@@H]2[C@@]1(C)C[C@H](O)C1=CC(=O)OC1O` (mixture of isomers) was tested, and the IC50 was 25.4 µM. With `COC(=O)[C@H]1C[C@@H]2[C@@](C)(C[C@H](O)C3=CC(=O)OC3O)[C@H](C)CC[C@@]2(C)[C@@]1(C)O` (some centres not stated) the IC50 was 1.5 µM. `CC1=CCC[C@@H]2[C@@](C)(C[C@H](O)C3=CC(=O)OC3O)[C@H](C)CC[C@@]12C` (some centres not stated) was tested, and the IC50 was 3.6 µM. `CC(=O)O[C@@H]1CC[C@@H]2[C@@](C)(C[C@H](O)C3=CC(=O)O[C@@H]3OC(C)=O)[C@H](C)CC[C@@]2(C)C(=O)C1` was tested, and the IC50 was 5.3 µM. `C[C@@H]1CC[C@]2(C)[C@H](CC(=O)[C@H]2C)[C@@]1(C)C[C@H](O)C1=CC(=O)OC1O` (some centres not stated) gave an IC50 of 1.4 µM.

Same assay, conditions: j774.a1
`C[C@@H]1CC[C@@]2(C)C(=O)C[C@@H](O)CC[C@@H]2[C@@]1(C)C[C@H](O)C1=CC(=O)OC1O` (stereo in doubt; 1) gave an IC50 of 16.6 µM.
